Read-outs that look alike come from different tables or passages of the source.
Biological target: T1, Full length wild-type cereblon CRBN (Homo sapiens, UniProt Q96SW2)
T1 construct: Full length wild-type cereblon CRBN (80.0 nM, 10 μL) was incubated in assay buffer
Experiment: Fluorescence polarization (FP) assay, cereblon binding
From the text: Compound activity was monitored in a fluorescence polarization (FP) homogeneous assay using 1-[5-({2-[2-(2-{[2-(2,6-dioxopiperidin-3-yl)-1,3-dioxo-2,3-dihydro-1H-isoindol-4-yl]oxy}acetamido)ethoxy]ethyl}carbamoyl)pentyl]-3,3-dimethyl-2-[(1E,3E)-5-[(2E)-1,3,3-trimethyl-5-sulfo-2,3-dihydro-1H-indol-2-ylidene]penta-1,3-dien-1-yl]-3H-indol-1-ium-5-sulfonate as a fluorescent probe. Unless otherwise stated, all reagents were purchased from Sigma Aldrich. […] Full length wild-type cereblon CRBN (80.0 nM, 10 μL) was incubated in assay buffer containing 20 mM HEPES (pH 8.0), […], 0.5 mM TCEP and 0.05% Tween 20 in the presence or absence of compound (300 nL). Inhibitors were stored as 10 mM DMSO stocks in an inert environment (low humidity, dark, low oxygen, room temperature) using the Storage Pod System. […] Following incubation at room temperature for 30 min, the assay was initiated by dispensing the probe to a final concentration of […] (2.5 nL of a 20 μM stock) using the Echo E5XX. […] The FP signal was subsequently normalized to the no-compound control (i.e., DMSO). Analysis and IC50 values were derived using Dotmatics (Dotmatics UK) software.

[1] = bounds stated in the text lists b2059-b2061, read-out: IC50 value
[2] = cereblon binding, class code, read-out: rFP IC50
[3] = IC50 value, bounds stated in the text lists b2059-b2061

T1 sequence (Q96SW2 whole entry): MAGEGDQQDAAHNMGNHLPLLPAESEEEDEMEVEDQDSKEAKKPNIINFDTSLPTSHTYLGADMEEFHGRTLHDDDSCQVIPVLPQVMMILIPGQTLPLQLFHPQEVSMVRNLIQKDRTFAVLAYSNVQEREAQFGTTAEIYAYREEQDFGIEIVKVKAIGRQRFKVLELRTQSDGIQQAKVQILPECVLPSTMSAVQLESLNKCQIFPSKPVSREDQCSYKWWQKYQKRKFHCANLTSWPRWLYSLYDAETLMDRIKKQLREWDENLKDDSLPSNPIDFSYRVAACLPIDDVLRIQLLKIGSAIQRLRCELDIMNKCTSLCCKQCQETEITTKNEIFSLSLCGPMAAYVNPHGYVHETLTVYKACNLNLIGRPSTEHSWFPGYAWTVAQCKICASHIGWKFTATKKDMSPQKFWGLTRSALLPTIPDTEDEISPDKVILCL

Compound	IC50 [1] [nM]	IC50 [2] [nM]	IC50 [3] [nM]	IC50 (rFP IC50 [nM], cereblon binding, class code) [nM]
COc1ccc(Cl)cc1NC(=O)OCc1ccc2c(c1)C(=O)N(C1CCC(=O)NC1=O)C2 (stereo not shown) [Compound 14]	< 1700	1100 to 1700		
COc1cc(Cl)ccc1NC(=O)OCc1ccc2c(c1)C(=O)N(C1CCC(=O)NC1=O)C2 (stereo not shown) [Compound 38]	< 1700	500 to 1100		
Cc1c(CN2CCOCC2)cc(NC(=O)OCc2ccc3c(c2)C(=O)N(C2CCC(=O)NC2=O)C3)cc1OC(F)F (stereo not shown) [Compound 25]	< 1700	500 to 1100		
Cc1ncc(NC(=O)OCc2ccc3c(c2)C(=O)N(C2CCC(=O)NC2=O)C3)cc1OC(F)(F)F (stereo not shown) [Compound 91]	< 1700	500 to 1100		
Cc1c(Cl)cc(NC(=O)OCc2ccc3c(c2)C(=O)N(C2CCC(=O)NC2=O)C3)cc1CN1CC2CC1CO2 (stereo not shown) [Compound 13]	< 1700	500 to 1100		
Cc1cc(C)c(NC(=O)OCc2ccc3c(c2)C(=O)N(C2CCC(=O)NC2=O)C3)cc1Cl (stereo not shown) [Compound 123, (2-(2,6-dioxopiperidin-3-yl)-3-oxoisoindolin-5-yl) methyl (5-chloro-2,4-dimethylphenyl)carbamate]	< 1100	500 to 1100		
O=C1CCC(N2Cc3ccc(COC(=O)Nc4ccc(C5COC5)cc4)cc3C2=O)C(=O)N1 (stereo not shown) [Compound 81]	< 1100			
COc1cc(NC(=O)OCc2ccc3c(c2)C(=O)N(C2CCC(=O)NC2=O)C3)cnc1-c1ccccc1 (stereo not shown) [Compound 90]	< 1700	1100 to 1700		
CN1CCC(COc2cc(Cl)cc(NC(=O)OCc3ccc4c(c3)C(=O)N(C3CCC(=O)NC3=O)C4)c2)C1 (stereo not shown) [Compound 40]	< 1100			
O=C1CCC(N2Cc3ccc(COC(=O)Nc4ccc(N5CCCC5)nc4)cc3C2=O)C(=O)N1 (stereo not shown) [Compound 60]	< 1100			
C[C@@H]1CCCN1c1ccc(NC(=O)OCc2ccc3c(c2)C(=O)N(C2CCC(=O)NC2=O)C3)cn1 (stereo partly drawn) [Compound 157, (2-(2,6-dioxopiperidin-3-yl)-3-oxoisoindolin-5-yl)methyl (6-((R)-2-methylpyrrolidin-1-yl)pyridin-3-yl)carbamate]	< 1100			
O=C1CCC(N2Cc3ccc(COC(=O)Nc4cc(OCCN5CCOCC5)cc(OC(F)(F)F)c4)cc3C2=O)C(=O)N1 (stereo not shown) [Compound 106]	< 1700	500 to 1100		
O=C1CCC(N2Cc3ccc(COC(=O)Nc4ccc(C5CC5)cc4)cc3C2=O)C(=O)N1 (stereo not shown) [Compound 39]	< 1700	500 to 1100		
CCc1cc(NC(=O)OCc2ccc3c(c2)C(=O)N(C2CCC(=O)NC2=O)C3)cnc1C (stereo not shown) [Compound 55]	< 1700	500 to 1100		
O=C1CCC(N2Cc3ccc(COC(=O)Nc4ccc5c(c4)OCCC5)cc3C2=O)C(=O)N1 (stereo not shown) [Compound 92]	< 1700	500 to 1100		
O=C1CCC(N2Cc3ccc(COC(=O)Nc4cnc(N5CCCCC5)cn4)cc3C2=O)C(=O)N1 (stereo not shown) [Compound 94]	< 1100			
CN(C)C1CN(c2ccc(NC(=O)OCc3ccc4c(c3)C(=O)N(C3CCC(=O)NC3=O)C4)cn2)C1 (stereo not shown) [Compound 89]	< 1700	500 to 1100		
O=C1CCC(N2Cc3ccc(COC(=O)Nc4ccnc(-c5ccccc5)c4)cc3C2=O)C(=O)N1 (stereo not shown) [Compound 149]			< 1100	
O=C1CCC(N2Cc3ccc(COC(=O)Nc4cc(Cl)cc(OC5CCNC5)c4)cc3C2=O)C(=O)N1 (stereo not shown) [Compound 20]	< 1700	1100 to 1700		
O=C1CCC(N2Cc3ccc(COC(=O)Nc4ccc5c(c4)CCO5)cc3C2=O)C(=O)N1 (stereo not shown) [Compound 66]	< 1100			
CN1CCC(Oc2cc(Cl)cc(NC(=O)OCc3ccc4c(c3)C(=O)N(C3CCC(=O)NC3=O)C4)c2)C1 (stereo not shown) [Compound 46]	< 1100			
Cc1c(Cl)cc(NC(=O)OCc2ccc3c(c2)C(=O)N(C2CCC(=O)NC2=O)C3)cc1OC1CCN(C)C1 (stereo not shown) [Compound 68]	< 1700	500 to 1100		
Cc1cc(NC(=O)OCc2ccc3c(c2)C(=O)N(C2CCC(=O)NC2=O)C3)cnc1-c1ccccc1 (stereo not shown) [Compound 88]	< 1700	500 to 1100		
O=C1CCC(N2Cc3ccc(COC(=O)Nc4ccc(N5CCCCC5)nn4)cc3C2=O)C(=O)N1 (stereo not shown) [Compound 75]	< 1100			

Compound	IC50 [1] [nM]	IC50 [2] [nM]	IC50 [3] [nM]	IC50 (rFP IC50 [nM], cereblon binding, class code) [nM]
Cc1c(F)cc(NC(=O)OCc2ccc3c(c2)C(=O)N(C2CCC(=O)NC2=O)C3)cc1CN1CCOCC1 (stereo not shown) [Compound 41]	< 1700	500 to 1100		
O=C1CCC(N2Cc3ccc(COC(=O)Nc4cc(F)cc(Cl)c4)cc3C2=O)C(=O)N1 (stereo not shown) [Compound 12]	< 1700	1100 to 1700		
CC(C)(C)c1ccc(NC(=O)OCc2ccc3c(c2)C(=O)N(C2CCC(=O)NC2=O)C3)nc1 (stereo not shown) [Compound 131, (2-(2,6-dioxopiperidin-3-yl)-3-oxoisoindolin-5-yl)methyl (5-(tert-butyl)pyridin-2-yl)carbamate]	< 1100	500 to 1100		
CC(C)(C)C12CC(NC(=O)OCc3ccc4c(c3)C(=O)N(C3CCC(=O)NC3=O)C4)(C1)C2 (stereo not shown) [Compound 120, (2-(2,6-dioxopiperidin-3-yl)-3-oxoisoindolin-5-yl)methyl (3-(tert-butyl)bicyclo[1.1.1]pentan-1-yl)carbamate]	< 1100	500 to 1100		
Cc1ccc(NC(=O)OCc2ccc3c(c2)C(=O)N(C2CCC(=O)NC2=O)C3)cc1F (stereo not shown) [Compound 133, (2-(2,6-dioxopiperidin-3-yl)-3-oxoisoindolin-5-yl)methyl (3-fluoro-4-methylphenyl)carbamate]	< 1100	500 to 1100		
Cc1cc(C)cc(NC(=O)OCc2ccc3c(c2)C(=O)N(C2CCC(=O)NC2=O)C3)c1 (stereo not shown) [Compound 8]	< 1700	500 to 1100		
CC(C)(C)c1cccc(NC(=O)OCc2ccc3c(c2)C(=O)N(C2CCC(=O)NC2=O)C3)c1 (stereo not shown) [Compound 153, (2-(2,6-dioxopiperidin-3-yl)-3-oxoisoindolin-5-yl)methyl (3-(tert-butyl)phenyl)carbamate]	< 1100	500 to 1100		
CC1(c2ccc(NC(=O)OCc3ccc4c(c3)C(=O)N(C3CCC(=O)NC3=O)C4)cn2)CC1 (stereo not shown) [Compound 152, (2-(2,6-dioxopiperidin-3-yl)-3-oxoisoindolin-5-yl)methyl (6-(1-methylcyclopropyl)pyridin-3-yl)carbamate]	< 1100			
O=C1CCC(N2Cc3ccc(COC(=O)Nc4cc(Cl)cc(OCC5CCNC5)c4)cc3C2=O)C(=O)N1 (stereo not shown) [Compound 16]	< 1100			
O=C1CCC(N2Cc3ccc(COC(=O)Nc4ccc5c(c4)CC(F)(F)O5)cc3C2=O)C(=O)N1 (stereo not shown) [Compound 113]			< 1100	
Cc1cc(F)c(NC(=O)OCc2ccc3c(c2)C(=O)N(C2CCC(=O)NC2=O)C3)cc1Cl (stereo not shown) [Compound 141, (2-(2,6-dioxopiperidin-3-yl)-3-oxoisoindolin-5-yl)methyl (5-chloro-2-fluoro-4-methylphenyl)carbamate]	< 1100	500 to 1100		
O=C1CCC(N2Cc3ccc(COC(=O)Nc4ccc(N5CCCC(F)(F)C5)nc4)cc3C2=O)C(=O)N1 (stereo not shown) [Compound 73]	< 1100			
O=C1CCC(N2Cc3ccc(COC(=O)Nc4ccccc4)cc3C2=O)C(=O)N1 (stereo not shown) [Compound 138, (2-(2,6-dioxopiperidin-3-yl)-3-oxoisoindolin-5-yl)methyl phenylcarbamate]	< 1100	500 to 1100		
O=C1CCC(N2Cc3ccc(COC(=O)Nc4ccc(N5CCOCC5)nc4)cc3C2=O)C(=O)N1 (stereo not shown) [Compound 76]	< 1700	500 to 1100		
O=C1CCC(N2Cc3ccc(COC(=O)Nc4cccc(OC5CC5)c4)cc3C2=O)C(=O)N1 (stereo not shown) [Compound 93]	< 1700	500 to 1100		
Cc1cc(NC(=O)OCc2ccc3c(c2)C(=O)N(C2CCC(=O)NC2=O)C3)cc(C)n1 (stereo not shown) [Compound 7]	< 1700	500 to 1100		
O=C1CCC(N2Cc3ccc(COC(=O)Nc4ccc(C5CC5)nc4)cc3C2=O)C(=O)N1 (stereo not shown) [Compound 80]	< 1100			
O=C1CCC(N2Cc3ccc(COC(=O)Nc4cc(CN5CCOCC5)cc(OC(F)F)c4)cc3C2=O)C(=O)N1 (stereo not shown) [Compound 95]	< 1700	1100 to 1700		
Cc1c(F)cc(NC(=O)OCc2ccc3c(c2)C(=O)N(C2CCC(=O)NC2=O)C3)cc1F (stereo not shown) [Compound 127, (2-(2,6-dioxopiperidin-3-yl)-3-oxoisoindolin-5-yl)methyl (3,5-difluoro-4-methylphenyl)carbamate]	< 1700	1100 to 1700		
CC(NC(=O)OCc1ccc2c(c1)C(=O)N(C1CCC(=O)NC1=O)C2)c1ccccc1 (stereo not shown) [Compound 102]	< 1700	500 to 1100		
O=C1CCC(N2Cc3ccc(COC(=O)Nc4ccc(-c5ccccc5F)nc4)cc3C2=O)C(=O)N1 (stereo not shown) [Compound 84]	< 1100			
Cc1cc(NC(=O)OCc2ccc3c(c2)C(=O)N(C2CCC(=O)NC2=O)C3)cc(F)c1C (stereo not shown) [Compound 117]			< 1100	500 to 1100
Cc1cc(NC(=O)OCc2ccc3c(c2)C(=O)N(C2CCC(=O)NC2=O)C3)cc(C)c1F (stereo not shown) [Compound 124, (2-(2,6-dioxopiperidin-3-yl)-3-oxoisoindolin-5-yl)methyl (4-fluoro-3,5-dimethylphenyl)carbamate]	< 1100			
C[C@H]1CCCN1c1ccc(NC(=O)OCc2ccc3c(c2)C(=O)N(C2CCC(=O)NC2=O)C3)cn1 (stereo partly drawn) [Compound 156, (2-(2,6-dioxopiperidin-3-yl)-3-oxoisoindolin-5-yl)methyl (6-((S)-2-methylpyrrolidin-1-yl)pyridin-3-yl)carbamate]	< 1100			

Reference: patent US20230348418A1, “ISOINDOLINONE COMPOUNDS” (Monte Rosa Therapeutics, Inc., priority 2021, published 2023)
